Results taken from ChEMBL document CHEMBL3272162, “Quinazolines and 1,4-benzodiazepines. 81. s-Triazolo[4,3-a][1,4]benzodiazepines by oxidative cyclization of hydrazones” (1977).

Experiments:
Type in all cases: functional
[1] = system: Mus musculus; test: CNS activity in po dosed mouse assessed as antagonism against pentylenetetrazole-induced response
[2] = system: Mus musculus; test: CNS activity in po dosed mouse assessed as antifighting activity by foot shock test
[3] = system: Mus musculus; test: CNS activity in po dosed mouse by inclined screen test

SMILES	ED50 [1]	ED50 [2]	ED50 [3]
COC(=O)c1nnc2n1-c1ccc(Cl)cc1C(c1ccccc1)=NC2	0.9 mg/kg	5 mg/kg	40 mg/kg
[O-][N+]1=C(c2ccccc2)c2cc(Cl)ccc2-n2c(nnc2C(O)CO)C1 (configuration not stated)	620 mg/kg	> 100 mg/kg	> 400 mg/kg
OCC(O)c1nnc2n1-c1ccc(Cl)cc1C(c1ccccc1)=NC2 (configuration not stated)	3.8 mg/kg	20 mg/kg	100 mg/kg
OCC(O)c1nnc2n1-c1ccc(Cl)cc1C(c1ccccc1F)=NC2 (configuration not stated)	1.5 mg/kg	5 mg/kg	200 mg/kg
C=Cc1nnc2n1-c1ccc(Cl)cc1C(c1ccccc1Cl)=NC2	4.2 mg/kg	6.25 mg/kg	150 mg/kg
C=Cc1nnc2n1-c1ccc(Cl)cc1C(c1ccccc1F)=NC2	1.3 mg/kg	2.5 mg/kg	150 mg/kg
CCOC(=O)NN(/C=C/c1nnc2n1-c1ccc(Cl)cc1C(c1ccccc1Cl)=NC2)C(=O)OCC	> 800 mg/kg	> 100 mg/kg	> 400 mg/kg
NNC(=O)c1nnc2n1-c1ccc(Cl)cc1C(c1ccccc1)=NC2	2.8 mg/kg	50 mg/kg	500 mg/kg
CN(C)CCNC(=O)c1nnc2n1-c1ccc(Cl)cc1C(c1ccccc1)=NC2	50 mg/kg	100 mg/kg	300 mg/kg
Cc1nnc2n1-c1ccc(Cl)cc1C(c1ccccc1)=[N+]([O-])C2	3.35 mg/kg	100 mg/kg	> 400 mg/kg
Cc1nnc2n1-c1ccc(Cl)cc1C(c1ccccc1)=NC2 [ALPRAZOLAM]	0.3 mg/kg	2.5 mg/kg	2 mg/kg
CNC1=Nc2ccc(Cl)cc2C(c2ccccc2)=[N+]([O-])C1 [CHLORDIAZEPOXIDE]	8 mg/kg	40 mg/kg	100 mg/kg
CN1C(=O)CN=C(c2ccccc2)c2cc(Cl)ccc21 [DIAZEPAM]	1.4 mg/kg	10 mg/kg	25 mg/kg
Clc1ccc2c(c1)C(c1ccccc1)=NCc1nncn1-2 [ESTAZOLAM]	1.1 mg/kg	0.5 mg/kg	> 400 mg/kg
